Experimental data as given in the supplement of paper PMC10307832.

How the values were obtained:
Assay in all cases: relative viability (nuclei count vs DMSO), 5 days (fraction); higher = more cells survive
Doxorubicin + OSI-027 = compound: COc1cccc2c1C(=O)c1c(O)c3c(c(O)c1C2=O)C[C@@](O)(C(=O)CO)C[C@@H]3O[C@H]1C[C@H](N)[C@H](O)[C@H](C)O1 [Doxorubicin] + COc1cccc2cc(-c3nc([C@H]4CC[C@H](C(=O)O)CC4)n4ncnc(N)c34)[nH]c12 [OSI-027] (partner 0.5 µM)
Procedure, shortened: (§1)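 Cells from lung cancer lines were seeded into 1536-well plates and, one day later, dosed by pin tool. Treatments were either a single drug or a fixed dose of an anchor drug with five library-drug doses (not always all listed) in √10 steps. After 5 days, nuclei were stained in a one-step fixation (final 0.05% Triton X-100, 1% formaldehyde, 1 ug/ml Hoechst) and counted on 4× images, and relative viability is the treated-to-vehicle nuclei ratio, as the median of duplicate plates.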

Doxorubicin + AZD7762 = compound: COc1cccc2c1C(=O)c1c(O)c3c(c(O)c1C2=O)C[C@@](O)(C(=O)CO)C[C@@H]3O[C@H]1C[C@H](N)[C@H](O)[C@H](C)O1 [Doxorubicin] + NC(=O)Nc1cc(-c2cccc(F)c2)sc1C(=O)N[C@H]1CCCNC1 [AZD7762] (partner 0.2 µM)
Procedure, shortened: as §1

BAY61-3606 + Pictilisib = compound: COC1=C(C=C(C=C1)C2=CC3=NC=CN3C(=N2)NC4=C(C=CC=N4)C(=O)N)OC [BAY61-3606] + CS(=O)(=O)N1CCN(Cc2cc3nc(-c4cccc5[nH]ncc45)nc(N4CCOCC4)c3s2)CC1 [Pictilisib] (partner 1 µM)
Procedure, shortened: as §1

BAY61-3606 + Luminespib = compound: COC1=C(C=C(C=C1)C2=CC3=NC=CN3C(=N2)NC4=C(C=CC=N4)C(=O)N)OC [BAY61-3606] + CCNC(=O)c1noc(-c2cc(C(C)C)c(O)cc2O)c1-c1ccc(CN2CCOCC2)cc1 [Luminespib] (partner 0.01 µM)
Procedure, shortened: as §1

| Cell Line | relative viability (Doxorubicin + OSI-027; first compound 0.001 µM) | relative viability (Doxorubicin + OSI-027; first compound 0.003162 µM) | relative viability (Doxorubicin + OSI-027; first compound 0.01 µM) | relative viability (Doxorubicin + OSI-027; first compound 0.03162 µM) | relative viability (Doxorubicin + OSI-027; first compound 0.1 µM) | relative viability (Doxorubicin + AZD7762; first compound 0.001 µM) | relative viability (Doxorubicin + AZD7762; first compound 0.003162 µM) | relative viability (Doxorubicin + AZD7762; first compound 0.01 µM) | relative viability (Doxorubicin + AZD7762; first compound 0.03162 µM) | relative viability (Doxorubicin + AZD7762; first compound 0.1 µM) | relative viability (BAY61-3606 + Pictilisib; first compound 0.02 µM) | relative viability (BAY61-3606 + Pictilisib; first compound 0.06325 µM) | relative viability (BAY61-3606 + Pictilisib; first compound 0.2 µM) | relative viability (BAY61-3606 + Pictilisib; first compound 0.6325 µM) | relative viability (BAY61-3606 + Pictilisib; first compound 2 µM) | relative viability (BAY61-3606 + Luminespib; first compound 0.02 µM) | relative viability (BAY61-3606 + Luminespib; first compound 0.06325 µM) | relative viability (BAY61-3606 + Luminespib; first compound 0.2 µM) | relative viability (BAY61-3606 + Luminespib; first compound 0.6325 µM) | relative viability (BAY61-3606 + Luminespib; first compound 2 µM) |
| --- | --- | --- | --- | --- | --- | --- | --- | --- | --- | --- | --- | --- | --- | --- | --- | --- | --- | --- | --- | --- |
| 201T | 0.494 | 0.838 | 0.724 | 0.638 | 0.274 | 0.626 | 0.756 | 0.642 | 0.556 | 0.577 | 0.716 | 0.677 | 0.761 | 0.703 | 0.744 | 1.11 | 1.03 | 1.04 | 1.16 | 1.05 |
| A549 | – | – | – | – | – | – | – | – | – | – | 0.585 | 0.566 | 0.532 | 0.572 | 0.436 | – | – | – | – | – |
| A-427 | 0.427 | 0.506 | 0.429 | 0.43 | 0.442 | 0.733 | 0.857 | 0.713 | 0.463 | 0.482 | 0.846 | 0.709 | 0.744 | 0.751 | 0.646 | 0.842 | 0.928 | 0.86 | 0.965 | 0.808 |
| ABC-1 | 0.431 | 0.494 | 0.424 | 0.306 | 0.32 | 0.443 | 0.937 | – | 0.655 | 0.6 | 0.822 | 0.766 | 0.787 | 0.709 | 0.538 | 0.985 | 0.549 | 0.529 | 0.81 | 0.338 |
| BEN | 0.301 | 0.28 | 0.335 | 0.301 | 0.29 | 0.96 | 0.65 | 0.82 | 0.562 | 0.624 | 0.71 | 0.476 | 0.6 | 0.655 | 0.599 | 0.464 | 0.349 | 0.253 | 0.321 | 0.407 |
| CAL-12T | 0.609 | 0.695 | 0.515 | 0.194 | 0.146 | 0.727 | 0.673 | 0.529 | 0.668 | 0.438 | 0.553 | 0.348 | 0.414 | 0.392 | 0.346 | 0.49 | 0.439 | 0.209 | 0.789 | 0.187 |
| COR-L23 | 0.753 | 0.912 | 0.741 | 0.452 | 0.193 | – | – | – | – | – | 0.933 | 0.871 | 0.866 | 0.871 | 0.449 | 0.672 | 0.728 | 0.674 | 0.806 | 0.372 |
| COR-L 105 | 0.71 | 0.623 | 0.556 | 0.428 | 0.34 | – | – | – | – | – | 0.505 | 0.385 | 0.434 | 0.373 | 0.346 | 0.827 | 0.689 | 0.75 | 0.76 | 0.503 |
| Calu-6 | – | – | – | – | – | – | – | – | – | – | 0.963 | 1.01 | 0.957 | 0.932 | 0.659 | – | – | – | – | – |
| ChaGo-K-1 | 0.587 | 0.588 | 0.63 | 0.439 | 0.398 | 0.857 | 0.922 | 0.873 | 0.846 | 0.811 | 0.897 | 0.591 | 0.708 | 0.506 | 0.696 | 0.611 | 0.606 | 0.587 | 0.554 | 0.436 |
| EBC-1 | – | – | – | – | – | – | – | – | – | – | 0.463 | 0.359 | 0.404 | 0.547 | 0.411 | – | – | – | – | – |
| EKVX | 0.727 | 0.66 | 0.702 | 0.639 | 0.695 | 0.719 | 0.844 | 0.794 | 0.725 | 0.486 | 0.415 | 0.404 | 0.407 | 0.411 | 0.388 | 0.999 | 0.927 | 0.844 | 0.897 | 0.843 |
| EMC-BAC-2 | 0.5 | 0.353 | 0.379 | 0.239 | 0.197 | 1.11 | 1.03 | 0.89 | 0.636 | 0.691 | 0.602 | 0.522 | 0.47 | 0.632 | 0.527 | 1.21 | 1.15 | 1.17 | 1.25 | 0.904 |
| EPLC-272H | 0.29 | 0.275 | 0.255 | 0.272 | 0.28 | 0.337 | 0.182 | 0.164 | 0.221 | 0.241 | 0.442 | 0.373 | 0.264 | 0.25 | 0.248 | 0.33 | 0.424 | 0.801 | 0.131 | 0.138 |
| H3255 | 0.641 | 0.517 | 0.629 | 0.581 | 0.594 | 0.859 | 0.818 | 0.821 | 0.964 | 0.764 | 0.516 | 0.432 | 0.463 | 0.467 | 0.447 | 0.966 | 0.896 | 0.951 | 1.06 | 0.961 |
| HARA | 0.454 | 0.543 | 0.569 | 0.509 | 0.473 | 1.09 | 0.25 | 0.38 | 0.267 | 0.377 | 0.444 | 0.371 | 0.372 | 0.39 | 0.312 | 0.672 | 0.462 | 0.681 | 0.682 | 0.352 |
| HCC-15 | – | 0.677 | 0.635 | 0.284 | 0.136 | 1.21 | 1.18 | 1.05 | 1.03 | 1.35 | 0.848 | 0.65 | 0.697 | 0.769 | 0.665 | 0.412 | 0.302 | 0.303 | 0.263 | 0.377 |
| HCC-44 | 0.35 | 0.575 | 0.63 | 0.381 | 0.322 | 0.938 | 1.02 | 1.01 | 1.04 | 0.993 | 0.581 | 0.651 | 0.634 | 0.684 | 0.561 | 1.1 | – | 1.17 | 1.24 | 0.997 |
| HCC-78 | 0.433 | 0.384 | 0.329 | 0.354 | 0.318 | 0.535 | 0.606 | 0.703 | 0.636 | 0.503 | 0.297 | 0.226 | 0.251 | 0.158 | 0.167 | – | – | – | – | – |
